From patent US10420731B1, “Method of synthesizing lignin-based nanocompositions” (KING SAUD UNIVERSITY, priority 2019, dated 2019)

Assays:
[1] = prior study; cited from earlier work
[2] = tested on: Caco-2 cells; test: MTT cell viability assay; format: cell-based, human; conditions: CUR 50 μM and 80 μM, 24 h, MTT (FIG. 9)
Experimental: Differentiated Caco-2 cells (ATCC, Rockville, Md., USA) were maintained in DMEM (4.5 g/L glucose) medium supplemented with 20% FBS (HyClone; Thermo Scientific, Waltham, Mass., USA), 1% non-essential amino acids, 1% L-glutamine, 1% streptomycin (100 μg/ml) and penicillin (100 IU/ml). The growth medium was changed every day in the first two weeks followed by three times a week.
Caco-2 cell line was transferred into 96-well plates, at a density of 5×10^4 cells per well. After cell adhesion, the culture media was removed and the cells were incubated with 250 μL of culture media containing a concentration range from 10 μM to 300 μM of CUR as free, CUR loaded LG NPs and equivalent unloaded LG NPs.
For free CUR, the samples were prepared from a stock solution in DMSO with appropriate dilutions to reach a maximum of 2% (v/v) of DMSO in each well. After a 24 h incubation period, the supernatant was removed and replaced by 100 μL of MTT solution (0.5 mg/ml) at (37 C°, 5% CO2) to allow MTT to be metabolized. […] Optical density was read at a wavelength of 570 nm using a microplate reader (ELX 800, Bio-Tek Instruments, Winooski, Vt., USA).
The induced cytotoxicity was calculated by comparing the optical density (OD) values against control wells. […] All measurements were performed in triplicate and the means±standard deviation (SD) were calculated.

[3] = reported; cited from earlier work
[4] = tested on: Caco-2 cell monolayer; conditions: in-vitro Caco-2 model system, previously known; cited from earlier work

COc1cc(/C=C/C(=O)CC(=O)/C=C/c2ccc(O)c(OC)c2)ccc1O [curcumin]
Oral bioavailability [1]: 1% | Cell viability [2]: below 50% | log P [3]: 3.7 | Papp [4]: < 3.18 ×10⁻⁶ cm/s
